Measurements from patent publication US20090233796A1, “HERBICIDAL COMPOSITION” (SYNGENTA CROP PROTECTION, INC., priority 2004, published 2009).

Assays:
Type in all cases: in vivo
STELLARIA MEDIA = test: Compound (A) with triasulfuron, weed plots; conditions: 26 g per hectare; 30 DAA; No. 3.1
Experimental: In these tests, various weeds were treated with triasulfuron alone at a rate equivalent to 26 g per hectare, Compound (A) alone at a rate equivalent to 10 g per hectare, and to a mixture of triasulfuron and Compound (A) at rates equivalent to the sum of these. The compositions were formulated as an emulsifyable concentrate (EC).
The results in the table under each application are the percentage of the plants that were killed.

DIGITARIA CILIARIS = test: Compound (A) with paraquat, weed plots; conditions: 700 g/ha; 51 DAA; No. 1.7
Experimental: (§1) In these tests, various weeds were treated with paraquat alone at rates equivalent to 700 g per hectare and 840 g per hectare, compound (A) alone at rates equivalent to 10 g per hectare and 20 g per hectare, and with a mixture of paraquat and compound (A) at rates equivalent to the sum of these. The compositions were formulated as an emulsifyable concentrate (EC).
(§2) The results in the table under each application are the percentage of the weeds plants that were killed.

CONYZA SP. = test: Compound (A) with paraquat, weed plots; conditions: 700 g/ha, 5 DAA
Experimental: as §1, §2

CYPERUS ROTUNDUS = test: Compound (A) with paraquat, weed plots; conditions: 840 g/ha; 56 DAA; No. 1.11
Experimental: as §1, §2

SONCHUS ASPER = test: Compound (A) with paraquat, weed plots; conditions: 840 g/ha; 32 DAA; No. 1.10
Experimental: as §1, §2

E[…]-GALLI = test: Compound (A) with paraquat, weed plots; conditions: 700 g/ha; 51 DAA; No. 1.8
Experimental: as §1, §2

VERONICA PERSICA = test: Compound (A) with paraquat, weed plots; conditions: 700 g/ha; 69 DAA; No. 1.6
Experimental: as §1, §2

LOLIUM RIGIDUM = test: Compound (A) with paraquat, weed plots; conditions: 700 g/ha; 41 DAA; No. 1.4
Experimental: as §1, §2

SETARIA VIRIDIS = test: Compound (A) with paraquat, weed plots; conditions: 700 g/ha; 43 DAA; No. 1.3
Experimental: as §1, §2

LAMIUM PURPUREUM = test: Compound (A) with paraquat, weed plots; conditions: 700 g/ha; 2 DAA; No. 1.5
Experimental: as §1, §2

SETARIA SP. = test: Compound (A) with paraquat, weed plots; conditions: 700 g/ha; 27 DAA; No. 1.2
Experimental: as §1, §2

Compound: COc1nc(C)nc(NC(=O)NS(=O)(=O)c2ccccc2OCCCl)n1 [Triasulfuron, triasulfuron, reference compound]
- percentage of the plants that were killed (STELLARIA MEDIA): 25%

Compound: C[n+]1ccc(-c2cc[n+](C)cc2)cc1 [paraquat, reference compound]
- percentage of the weeds plants that were killed (DIGITARIA CILIARIS): 0%
- percentage of the weeds plants that were killed (CONYZA SP.; No. 1.1): 2%
- percentage of the weeds plants that were killed (CONYZA SP.; No. 1.9): 2%
- percentage of the weeds plants that were killed (CYPERUS ROTUNDUS): 65%
- percentage of the weeds plants that were killed (SONCHUS ASPER): 0%
- percentage of the weeds plants that were killed (E[…]-GALLI): 0%
- percentage of the weeds plants that were killed (VERONICA PERSICA): 25%
- percentage of the weeds plants that were killed (LOLIUM RIGIDUM): 53%
- percentage of the weeds plants that were killed (SETARIA VIRIDIS): 0%
- percentage of the weeds plants that were killed (LAMIUM PURPUREUM): 53%
- percentage of the weeds plants that were killed (SETARIA SP.): 0%
